Measurements from US4132790A.
Like-named read-outs stand apart in the source and are kept apart here.

What was measured:
solubility = type: physicochemical; details: monoammonium salt
[1] = tested on: Ascaris lumbricoides var. suum; test: anthelmintic test in infected mice, treated feed; type: in vivo; details: Example 13, 0.05 percent in diet, control 2.66
Text: The feeds were utilized as diets for separate groups of mice, five mice per group. About twelve hours after initiation of the feeding, the mice were infected with Ascaris lumbricoides var. suum ova. Another group of five mice was fed the non-medicated feed to serve as a control but was similarly infected at the same time with Ascaris lumbricoides var. suum. All groups were fed their respective feed and maintained under normal laboratory conditions for a period of eight days, at which time all mice were taken off feed. On the ninth day, all mice were sacrified and the lungs examined to determine the presence, and if present, numbers, of lesions of Ascaris lumbricoides var. suum.
Another evaluation was conducted under the procedures reported in Example II, except that the rates were varied. The results were as follows:
In a further evaluation, the monoammonium salts of A16886I and A16886II were separately evaluated for the control of Ascaris lumbricoides var. suum. The evaluations were conducted in accordance with the procedure reported in Example 11 at a concentration in the diet of 0.05 percent.

Pseudomonas solanacearum = type: in vivo; details: scale 0 to 4; for Disease Rating: light infection in controls; for rating: heavy infestation in controls
Xanthomonas vesicatoria = test: field trial, bacterial spot control on tomato plants; type: in vivo; details: for Percent Bacterial Spot Control First Reading: one week; for Percent Bacterial Spot Control Second Reading: two weeks
Experimental: (§1) A mixture of the monoammonium salt of A16886I and the monoammonium salt of A16886II was tested under field conditions for the control of Xanthomonas vesicatoria (bacterial spot) on mature bearing tomato plant. The mixture of the two salts was dispersed in water at a concentration of 100, 200, or 400 parts per million and applied to the plants at the rate of 75 gallons per acre. Application was made with a CO2 sprayer at 50 psi. Plants were sprayed twice, on successive days; after the second spray had dried, all plants were wounded by sand blasting and then within one minute the plants were inoculated with a bacterial inoculum of Xanthomonas vesicatoria. Three days later, a third spray application of the aqueous formulation of A16886 was made. Readings were made one week and two weeks after the last spray treatment. Controls consisted of groups of plants (1) sand blasted and inoculated; (2) sand blasted only; (3) untreated; and (4) treated with streptomycin (on the same three-day spraying schedule, at a concentration of 100, 200, or 400 parts per million of aqueous solution, using a rate of 75 gallons per acre), sand blasted, and inoculated. The results were as set forth in the following table, in which crop injury is reported on a scale of 0-10, with 0 = no injury and 10 = dead plants; and control of bacterial spot is reported on a percentage basis.

tomato plant = test: field trial, crop injury; type: in vivo; details: scale 0 = no injury, 10 = dead plants; for Crop Injury Ratings First Reading: one week; for Crop Injury Ratings Second Reading: two weeks
Experimental: as §1

Structure (SMILES)	solubility in acetonitrile and other organic solvents (solubility)	solubility in lower alkanols (solubility)	solubility in water (solubility)	Average Number of Lung Lesions Per Group [1]	Disease Rating (Pseudomonas solanacearum; Example 7, 10 ppm)	Disease Rating (Pseudomonas solanacearum; Example 7, 100 ppm)	rating (Pseudomonas solanacearum; Example 8, 200 ppm)	rating (Pseudomonas solanacearum; Example 8, 400 ppm)	Percent Bacterial Spot Control First Reading (Xanthomonas vesicatoria; 100 parts/million) [%]	Percent Bacterial Spot Control Second Reading (Xanthomonas vesicatoria; 100 parts/million) [%]	Percent Bacterial Spot Control First Reading (Xanthomonas vesicatoria; 200 parts/million) [%]	Percent Bacterial Spot Control Second Reading (Xanthomonas vesicatoria; 200 parts/million) [%]	Percent Bacterial Spot Control First Reading (Xanthomonas vesicatoria; 400 parts/million) [%]	Percent Bacterial Spot Control Second Reading (Xanthomonas vesicatoria; 400 parts/million) [%]	Crop Injury Ratings First Reading (tomato plant; 100 parts/million)	Crop Injury Ratings Second Reading (tomato plant; 100 parts/million)	Crop Injury Ratings First Reading (tomato plant; 200 parts/million)	Crop Injury Ratings Second Reading (tomato plant; 200 parts/million)	Crop Injury Ratings First Reading (tomato plant; 400 parts/million)	Crop Injury Ratings Second Reading (tomato plant; 400 parts/million)
COC1(NC(=O)CCCC(N)C(=O)O)C(=O)N2C(C(=O)O)=C(COC(N)=O)CS[C@@H]21 (some centres unmarked) [A16886I, 7-(5-amino-5-carboxyvaleramido)-3-(carbamoyloxymethyl)-7-methoxy-3-cephem-4-carboxylic acid]	essentially insoluble	slightly soluble	very soluble	0.46	2	4	4	4	–	–	–	–	–	–	–	–	–	–	–	–
[H]/N=C(/N)N[C@H]1[C@H](O)[C@@H](O)[C@H](O[C@@H]2O[C@@H](C)[C@](O)(C=O)[C@H]2O[C@@H]2O[C@@H](CO)[C@H](O)[C@@H](O)[C@@H]2NC)[C@@H](N/C(N)=N\[H])[C@@H]1O [Streptomycin]	–	–	–	–	–	–	–	–	83	57	81	37	83	59	0	0	0	0	0	0
NC(=O)OCC1=C(C(=O)O)N2C(=O)C(NC(=O)CCCC(N)C(=O)O)[C@H]2SC1 (some centres unmarked) [A16886II, 7-(5-amino-5-carboxyvaleramido)-3-(carbamoyloxymethyl)-3-cephem-4-carboxylic acid]	essentially insoluble	slightly soluble	very soluble	0.20	1	4	–	–	–	–	–	–	–	–	–	–	–	–	–	–
